Tested on: infantile female Wistar rats
Test: Uterine activity in infantile female Wistar rats
Type: in vivo, Wistar rat
Details: for Uterine weight (-x): n=10
Text: STS 593 was weaker than ethynylestradiol by a factor of 9 in its estrogenic properties as shown by the Allen-Doisy test in ovariectomized mice. The compound was only 7% as active as the standard mestranol in producing a uterine response in infantile rats (Table 3), whereas the antiestrogenic properties exceeded those of clomiphene citrate by a factor of 1.4.
Comparison of uterine activity in infantile female
Wistar rats produced by STS 593 and mestranol

Structure (SMILES): COc1ccc2c(c1)CC[C@@H]1[C@@H]2CC[C@]2(C)[C@@H](O)C[C@H]3C[C@@]312 [STS 593, 3-methoxy-14β,15β-methylene-estra-1,3,5(10)-triene-17β-ol]
- Uterine response, activity relative to mestranol (infantile rats): 7%
- Uterine weight (-x) (total dose 0.1 per animal over 3 days p.o.): 27.63 mg
- Uterine weight (-x) (total dose 1.0 per animal over 3 days p.o.): 52.40 mg
- Uterine weight (-x) (total dose 10.0 per animal over 3 days p.o.): 75.90 mg
